Experimental data published in US9096591B2, “Tetracyclic compounds” (Medivation Technologies, Inc., priority 2007, dated 2015).

Tests used:
Details in all cases: percent inhibition of specific binding
[1] = molecular target: T1, human recombinant dopamine D2L receptor (Homo sapiens, UniProt P14416); test: Dopamine D2L radioligand binding ([3H]Spiperone)
T1 construct: expressed in transfected cells; host or cells: CHO cells
Experimental: Non-specific binding was estimated in the presence of 10 μM Haloperidol. Receptor proteins were filtered and washed, the filters were then counted to determine [^3H]Spiperone specifically bound. […] Biochemical assay results are presented as the percent inhibition of specific binding in Table 6.

[2] = molecular target: T2, Serotonin (5-Hydroxytryptamine) 5-HT7 (Homo sapiens, UniProt P34969); test: Serotonin 5-HT7 radioligand binding ([3H]LSD); design: Inhibition of ligand binding, Ser. 5-HT7: concentration or dose not given beside the values
T2 construct: expressed in transfected cells; host or cells: CHO cells
Experimental: Lysergic acid diethylamide (LSD) for 2 hours at 25° C. […] Receptor proteins were filtered and washed, the filters were then counted to determine [^3H]LSD specifically bound. […] Biochemical assay results are presented as the percent inhibition of specific binding in Table 6.

[3] = molecular target: T3, human recombinant adrenergic α2B receptor (Homo sapiens, UniProt P18089); test: Adrenergic α2B radioligand binding ([3H]Rauwolscine); design: Inhibition of ligand binding, Adren. alpha2B: concentration or dose not given beside the values
T3 construct: expressed in transfected cells; host or cells: CHO-K1 cells
T3 sequence (P18089 1-450): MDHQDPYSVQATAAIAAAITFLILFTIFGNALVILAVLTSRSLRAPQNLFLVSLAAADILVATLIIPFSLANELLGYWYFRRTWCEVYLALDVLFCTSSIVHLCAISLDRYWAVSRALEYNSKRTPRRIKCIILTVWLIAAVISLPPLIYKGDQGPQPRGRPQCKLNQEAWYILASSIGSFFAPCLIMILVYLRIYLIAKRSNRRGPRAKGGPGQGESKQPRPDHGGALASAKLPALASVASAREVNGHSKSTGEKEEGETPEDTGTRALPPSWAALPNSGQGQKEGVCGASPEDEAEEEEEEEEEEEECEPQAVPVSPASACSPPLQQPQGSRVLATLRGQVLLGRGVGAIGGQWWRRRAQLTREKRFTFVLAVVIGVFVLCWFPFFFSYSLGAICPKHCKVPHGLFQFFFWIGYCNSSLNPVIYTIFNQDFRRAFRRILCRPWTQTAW
In short: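 Membranes from CHO-K1 cells expressing the receptor, in 50 mM Tris-HCl pH 7.4 with 12.5 mM MgCl2, 1 mM EDTA, 0.2% BSA, incubated with compounds and 2.5 nM [3H]Rauwolscine for 60 minutes at 25 °C.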

[4] = molecular target: T4, human recombinant serotonin (5-Hydroxytryptamine) 5-HT2C receptor (Homo sapiens, UniProt P28335); test: Serotonin 5-HT2C radioligand binding ([3H]Mesulergine); design: Inhibition of ligand binding, Ser. 5-HT2C: concentration or dose not given beside the values
T4 construct: expressed in transfected cells; host or cells: CHO-K1 cells
T4 sequence (P28335 33-458): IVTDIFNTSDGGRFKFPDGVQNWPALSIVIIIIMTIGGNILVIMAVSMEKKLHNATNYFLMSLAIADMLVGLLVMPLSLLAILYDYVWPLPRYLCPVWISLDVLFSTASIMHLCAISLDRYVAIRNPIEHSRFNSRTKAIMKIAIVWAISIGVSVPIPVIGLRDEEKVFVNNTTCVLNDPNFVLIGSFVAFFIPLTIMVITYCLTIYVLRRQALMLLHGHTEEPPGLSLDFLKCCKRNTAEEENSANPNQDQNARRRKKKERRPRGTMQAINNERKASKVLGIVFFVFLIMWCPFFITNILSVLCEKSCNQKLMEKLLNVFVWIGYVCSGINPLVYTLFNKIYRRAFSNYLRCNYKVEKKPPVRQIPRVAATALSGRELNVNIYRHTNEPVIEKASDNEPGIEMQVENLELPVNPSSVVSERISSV
Experimental: Compounds of the invention were incubated with 1 nM [^3H]Mesulergine for 60 minutes at 25° C. Non-specific binding was estimated in the presence of 1 μM Mianserin. Receptor proteins were filtered and washed, the filters were then counted to determine [^3H]Mesulergine specifically bound. […] Biochemical assay results are presented as the percent inhibition of specific binding in Table 6.

[5] = molecular target: T5, human recombinant adrenergic α2A receptor (Homo sapiens, UniProt P08913); test: Adrenergic α2A radioligand binding ([3H]MK-912); design: Inhibition of ligand binding, Adren. alpha2A: concentration or dose not given beside the values
T5 construct: expressed in transfected cells; host or cells: insect Sf9 cells
T5 sequence (P08913 1-465): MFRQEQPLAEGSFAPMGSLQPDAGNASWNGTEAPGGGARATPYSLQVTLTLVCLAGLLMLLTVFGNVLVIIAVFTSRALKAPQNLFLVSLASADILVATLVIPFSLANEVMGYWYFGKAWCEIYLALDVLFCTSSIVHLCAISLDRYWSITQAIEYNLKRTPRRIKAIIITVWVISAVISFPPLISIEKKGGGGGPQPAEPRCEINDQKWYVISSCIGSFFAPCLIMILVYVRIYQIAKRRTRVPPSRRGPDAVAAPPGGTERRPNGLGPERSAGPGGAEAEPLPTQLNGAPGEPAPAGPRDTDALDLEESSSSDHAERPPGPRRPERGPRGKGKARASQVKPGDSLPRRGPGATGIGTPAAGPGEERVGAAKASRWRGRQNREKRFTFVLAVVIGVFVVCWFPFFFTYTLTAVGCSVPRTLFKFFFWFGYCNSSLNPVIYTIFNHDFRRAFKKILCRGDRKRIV
In short: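 Membranes from Sf9 cells expressing the receptor were incubated with 1 nM [3H]MK-912 for 60 minutes at 25° C in 50 mM Tris-HCl pH 7.4, 12.5 mM MgCl2, 2 mM EDTA. 10 μM WB-4101 defined non-specific binding. Values are percent inhibition of specific bound radioactivity after filtration.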

T1 sequence (P14416 whole entry): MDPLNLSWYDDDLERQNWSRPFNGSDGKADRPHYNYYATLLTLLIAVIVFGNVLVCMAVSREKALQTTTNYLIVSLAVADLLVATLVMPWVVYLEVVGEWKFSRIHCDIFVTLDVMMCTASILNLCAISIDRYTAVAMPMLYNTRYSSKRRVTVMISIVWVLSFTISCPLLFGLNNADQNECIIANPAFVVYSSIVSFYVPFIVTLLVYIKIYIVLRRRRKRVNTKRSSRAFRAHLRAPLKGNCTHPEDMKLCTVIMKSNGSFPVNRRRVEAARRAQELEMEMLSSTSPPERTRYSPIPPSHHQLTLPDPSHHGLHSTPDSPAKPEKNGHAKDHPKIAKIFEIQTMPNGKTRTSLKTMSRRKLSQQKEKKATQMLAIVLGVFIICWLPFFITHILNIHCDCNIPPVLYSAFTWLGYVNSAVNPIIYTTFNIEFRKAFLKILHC
T2 sequence (P34969 whole entry): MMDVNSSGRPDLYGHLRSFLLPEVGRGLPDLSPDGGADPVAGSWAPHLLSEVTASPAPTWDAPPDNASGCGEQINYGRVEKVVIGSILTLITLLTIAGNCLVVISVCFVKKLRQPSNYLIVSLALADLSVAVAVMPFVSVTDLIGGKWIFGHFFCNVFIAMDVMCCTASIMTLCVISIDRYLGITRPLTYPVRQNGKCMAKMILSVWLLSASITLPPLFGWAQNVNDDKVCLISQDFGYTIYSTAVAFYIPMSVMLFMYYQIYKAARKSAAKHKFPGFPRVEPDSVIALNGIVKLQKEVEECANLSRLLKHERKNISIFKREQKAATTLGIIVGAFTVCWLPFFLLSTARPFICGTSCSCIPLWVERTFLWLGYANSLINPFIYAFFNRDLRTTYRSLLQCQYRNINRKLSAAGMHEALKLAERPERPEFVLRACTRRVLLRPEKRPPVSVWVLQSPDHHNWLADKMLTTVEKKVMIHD

Row | SMILES | Inhibition of ligand binding, Dop. D2L [1] | Inhibition of ligand binding, Ser. 5-HT7 [2] | Inhibition of ligand binding, Adren. alpha2B [3] | Inhibition of ligand binding, Ser. 5-HT2C [4] | Inhibition of ligand binding, Adren. alpha2A [5]
1 | CN1CCc2c(c3cc(Cl)ccc3n2CCc2ccc(C(F)(F)F)nc2)C1 [Compound 250] | 21% | 93% | 108% | 79% | 91%
2 | Cc1ccc2c(c1)c1c(n2CCc2ccc(C)nc2)CCN(C)C1 [Dimebon, dimebon, reference compound] | 41% | – | 112% | 86% | 91%
